Data published in PubChem BioAssay (NCI).
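Tested at 5 concentrations; 48 h exposure; 96-well plates; endpoints linearly interpolated, else capped at highest concentration. TGI denotes the concentration required for complete inhibition of growth.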

Legend:
Test in all cases: DTP human tumour cell line panel, 48 h
LOX IMVI melanoma = test system: LOX IMVI melanoma
RXF-631 renal = test system: RXF-631 renal
COLO 205 colon = test system: COLO 205 colon
HCT-15 colon = test system: HCT-15 colon
CCRF-CEM leukemia = test system: CCRF-CEM leukemia
NCI-H226 lung = test system: NCI-H226 lung
SW-620 colon = test system: SW-620 colon
MDA-MB-435 = test system: MDA-MB-435
786-0 renal = test system: 786-0 renal
OVCAR-5 ovarian = test system: OVCAR-5 ovarian
K-562 leukemia = test system: K-562 leukemia
SF-268 CNS = test system: SF-268 CNS
TK-10 renal = test system: TK-10 renal
OVCAR-4 ovarian = test system: OVCAR-4 ovarian
SNB-78 CNS = test system: SNB-78 CNS
HOP-18 NSCLC = test system: HOP-18 NSCLC
EKVX NSCLC = test system: EKVX NSCLC
MDA-MB-231 breast = test system: MDA-MB-231 breast
KM12 colon = test system: KM12 colon
SF-295 CNS = test system: SF-295 CNS
PC-3 prostate = test system: PC-3 prostate
DMS 273 small cell lung = test system: DMS 273 small cell lung
SNB-19 CNS = test system: SNB-19 CNS
U251 CNS = test system: U251 CNS
SF-539 CNS = test system: SF-539 CNS
LXFL 529 NSCLC = test system: LXFL 529 NSCLC
SNB-75 CNS = test system: SNB-75 CNS
OVCAR-8 ovarian = test system: OVCAR-8 ovarian
XF 498 CNS = test system: XF 498 CNS
NCI-H460 lung = test system: NCI-H460 lung
IGROV1 ovarian = test system: IGROV1 ovarian
CAKI-1 renal = test system: CAKI-1 renal
MALME-3M melanoma = test system: MALME-3M melanoma
DMS 114 small cell lung = test system: DMS 114 small cell lung
UO-31 renal = test system: UO-31 renal
SK-MEL-5 melanoma = test system: SK-MEL-5 melanoma
NCI-H522 lung = test system: NCI-H522 lung
NCI-H23 lung = test system: NCI-H23 lung
DU-145 prostate = test system: DU-145 prostate
SK-MEL-2 melanoma = test system: SK-MEL-2 melanoma
BT-549 breast = test system: BT-549 breast
A549 NSCLC = test system: A549 NSCLC
NCI/ADR-RES ovarian = test system: NCI/ADR-RES ovarian
UACC-62 melanoma = test system: UACC-62 melanoma
MCF7 breast = test system: MCF7 breast
HS 578T breast = test system: HS 578T breast
M14 melanoma = test system: M14 melanoma
HT29 colon = test system: HT29 colon
MDA-N = test system: MDA-N
HOP-92 NSCLC = test system: HOP-92 NSCLC
T-47D breast = test system: T-47D breast
HCT-116 colon = test system: HCT-116 colon
HL-60(TB) leukemia = test system: HL-60(TB) leukemia
HCC-2998 colon = test system: HCC-2998 colon
M19-MEL melanoma = test system: M19-MEL melanoma
SN12C renal = test system: SN12C renal
SK-OV-3 ovarian = test system: SK-OV-3 ovarian
SR leukemia = test system: SR leukemia
A498 renal = test system: A498 renal
ACHN renal = test system: ACHN renal
SK-MEL-28 melanoma = test system: SK-MEL-28 melanoma
RXF 393 renal = test system: RXF 393 renal
HOP-62 NSCLC = test system: HOP-62 NSCLC
OVCAR-3 ovarian = test system: OVCAR-3 ovarian
UACC-257 melanoma = test system: UACC-257 melanoma
RPMI-8226 leukemia = test system: RPMI-8226 leukemia

`CSC(=Nc1ccccc1)/N=C(\SCc1ccccc1)N(C)C` was tested, and the TGI (LOX IMVI melanoma) was 383 nM, the TGI (RXF-631 renal) was 3.12 µM and the TGI (COLO 205 colon) was 1580 nM. The TGI (HCT-15 colon) was 2380 nM, the TGI (CCRF-CEM leukemia) was > 100 µM and the TGI (NCI-H226 lung) was 3.1 µM. For the same compound, the TGI (SW-620 colon) was 1830 nM, the TGI (MDA-MB-435) was 2480 nM and the TGI (786-0 renal) was 1780 nM. For the same compound, the TGI (OVCAR-5 ovarian) was 2840 nM, the TGI (K-562 leukemia) was > 100 µM and the TGI (SF-268 CNS) was 2480 nM. It also gave a TGI (TK-10 renal) of 2630 nM, a TGI (OVCAR-4 ovarian) of 2430 nM and a TGI (SNB-78 CNS) of 4.16 µM. The TGI (HOP-18 NSCLC) was 2100 nM, the TGI (EKVX NSCLC) was 3.33 µM and the TGI (MDA-MB-231 breast) was 2390 nM. It also gave a TGI (KM12 colon) of 2760 nM, a TGI (SF-295 CNS) of 2890 nM and a TGI (PC-3 prostate) of 2550 nM. For the same compound, the TGI (DMS 273 small cell lung) was 2570 nM, the TGI (SNB-19 CNS) was 2680 nM and the TGI (U251 CNS) was 2540 nM. The TGI (SF-539 CNS) was 2570 nM, the TGI (LXFL 529 NSCLC) was 1790 nM and the TGI (SNB-75 CNS) was 3.25 µM. It also gave a TGI (OVCAR-8 ovarian) of 3.22 µM, a TGI (XF 498 CNS) of 2660 nM and a TGI (NCI-H460 lung) of 691 nM. The TGI (IGROV1 ovarian) was 2450 nM, the TGI (CAKI-1 renal) was 2790 nM and the TGI (MALME-3M melanoma) was 2650 nM. It also gave a TGI (DMS 114 small cell lung) of 3.77 µM, a TGI (UO-31 renal) of 2820 nM and a TGI (SK-MEL-5 melanoma) of 2920 nM. For the same compound, the TGI (NCI-H522 lung) was 540 nM, the TGI (NCI-H23 lung) was 3.32 µM and the TGI (DU-145 prostate) was 2130 nM. The TGI (SK-MEL-2 melanoma) was 3.44 µM, the TGI (BT-549 breast) was 2860 nM and the TGI (A549 NSCLC) was 4.63 µM. It also gave a TGI (NCI/ADR-RES ovarian) of 3.77 µM, a TGI (UACC-62 melanoma) of 1870 nM and a TGI (MCF7 breast) of 1190 nM. The TGI (HS 578T breast) was 4.17 µM, the TGI (M14 melanoma) was 2120 nM and the TGI (HT29 colon) was 1050 nM. It also gave a TGI (MDA-N) of 2030 nM, a TGI (HOP-92 NSCLC) of 2730 nM and a TGI (T-47D breast) of 1970 nM. For the same compound, the TGI (HCT-116 colon) was 1380 nM, the TGI (HL-60(TB) leukemia) was > 100 µM and the TGI (HCC-2998 colon) was 1690 nM. It also gave a TGI (M19-MEL melanoma) of 3.36 µM, a TGI (SN12C renal) of 2420 nM and a TGI (SK-OV-3 ovarian) of 6.69 µM. The TGI (SR leukemia) was > 100 µM, the TGI (A498 renal) was 5.27 µM and the TGI (ACHN renal) was 2390 nM. The TGI (SK-MEL-28 melanoma) was 1790 nM, the TGI (RXF 393 renal) was 2300 nM and the TGI (HOP-62 NSCLC) was 3.31 µM. For the same compound, the TGI (OVCAR-3 ovarian) was 2100 nM, the TGI (UACC-257 melanoma) was 3.23 µM and the TGI (RPMI-8226 leukemia) was 3.57 µM.
